Assay results taken from patent publication US20050137175A1, “Use of ecdysteroids for preparing dermatological or cosmetological anti-hair loss compositions” (L'OREAL, priority 2003, published 2005).

Experiments:
[1] = tested on: C3H murine model; settings: cited from earlier work
[2] = tested on: human hair follicle; assay: Human hair follicle survival in vitro model; assay type: cell-based
Protocol: We had developed and patented a model for a surviving human follicle in vitro (FR 95-08465) making it possible to evaluate the effect of a substance on follicle survival and extension. We used this in vitro model for evaluating the effect of ecdysterone on hair follicle growth and survival. Various concentrations of this substance were tested: 0.01 μg/ml, 0.1 μg/ml, 1 μg/ml and 10 μg/ml.

[3] = tested on: hair follicle; assay: Maintenance of hair follicle integrity in vitro (antibody labelling of compartment markers Ki67, keratin K14, transglutaminase, keratin hHa5); assay type: cell-based, human; settings: 14 days of culture, ecdysterone 0.01 μg/ml, compared with reference follicle at D=0
Text: In order to characterize more fully the effect of this substance on the hair follicle, we monitored the mitotic activity of the bulb cells and also the various specific differentiation programmes of the outer sheath, of the inner sheath and of the pilar shaft, in the presence or absence of this substance.
The integrity of the follicle compartments after 14 days of culture was thus monitored by means of antibodies that recognize markers specific for each of these compartments: the mitosis marker Ki67, specific for the matrix (S. Commo & B. A. Bernard, 1997, Br. J. Dermatol. 137: 31-38); keratin K14, specific for the outer sheath (ibid.); transglutaminase, specific for the inner sheath (ibid.); and keratin hHa5, specific for the pillar shaft, and in particular the keratogenic zone and the cuticle (L. Langbein et al., 1999, J. Biol. Chem. 274: 19874-19884).

For `CC(C)(O)CC[C@@H](O)[C@](C)(O)[C@H]1CC[C@@]2(O)C3=CC(=O)[C@@H]4C[C@@H](O)[C@@H](O)C[C@]4(C)[C@H]3CC[C@]12C` [ecdysterone], the hair regrowth [1] is given as “stimulate hair regrowth”, the “human hair follicle survival in vitro” value ([2]; ecdysterone 0.01 μg/ml) is given as “significantly increases human hair follicle survival” and the “human hair follicle survival in vitro” value ([2]; ecdysterone 0.1 μg/ml) is given as “significantly increases human hair follicle survival”. The “human hair follicle survival in vitro” value ([2]; ecdysterone 10 μg/ml) was “significantly increases human hair follicle survival” and the “expression of follicle compartment markers (Ki67, keratin K14, transglutaminase, keratin hHa5)” value [3] was “all the markers studied conserve an expression that is comparable to that of the reference follicle at D=0”.
